Measurements as given in patent publication US5756120A, “Antibiotic formulation and use for drug resistant infections” (NeXstar Pharmaceuticals, Inc., priority 1995, dated 1998).
Where “and” joins values, the source holds several entries; their conditions need not be identical. Equal values may be shown once. Entries after “also recorded” stand apart in the source; their conditions may differ. Read-outs that look alike come from different tables or passages of the source.

Test system: M. tuberculosis drug resistant strain Vertulla
Assay type: cell-based
Conditions: for CFU (1 × 10^3): duplicate values; for inhibition or killing of drug resistant M. tuberculosis: concentrations tested (4, 8 and 16 μg/ml)

NCC[C@H](O)C(=O)N[C@@H]1C[C@H](N)[C@@H](O[C@H]2O[C@H](CN)[C@@H](O)[C@H](O)[C@H]2O)[C@H](O)[C@H]1O[C@H]1O[C@H](CO)[C@@H](O)[C@H](N)[C@H]1O [amikacin]
Avg. log CFU (4 μg/ml, day 4): 3.9 log CFU
CFU (1 × 10^3) (4 μg/ml, day 4): 9.3 1 × 10^3 CFU and 8.0 1 × 10^3 CFU
Avg. log CFU (4 μg/ml, day 7): 5.2 log CFU
Avg. log CFU (8 μg/ml, day 4): 3.7 log CFU
CFU (1 × 10^3) (8 μg/ml, day 4): 5 1 × 10^3 CFU and 4 1 × 10^3 CFU
Avg. log CFU (8 μg/ml, day 7): 3.7 log CFU
CFU (1 × 10^3) (8 μg/ml, day 7): 4.5 1 × 10^3 CFU and 6.2 1 × 10^3 CFU
Avg. log CFU (16 μg/ml, day 4): 3.7 log CFU
CFU (1 × 10^3) (16 μg/ml, day 4): 5 1 × 10^3 CFU and 5.4 1 × 10^3 CFU
Avg. log CFU (16 μg/ml, day 7): 3.6 log CFU
CFU (1 × 10^3) (16 μg/ml, day 7): 3.7 1 × 10^3 CFU and 4.1 1 × 10^3 CFU
inhibition or killing of drug resistant M. tuberculosis (listed as free amikacin): at the most, inhibition; also recorded: only inhibit the growth of the infection without killing at the concentrations tested
inhibition or killing of drug resistant M. tuberculosis (listed as free drug): only inhibits the growth of the bacteria
